The text below walks through data of ChEMBL document CHEMBL1151901, “3-(aminomethyl)piperazine-2,5-dione as a novel NMDA glycine site inhibitor from the chemical universe database GDB” (Bioorg Med Chem Lett, 2009).

Test [1] deals with Glutamate NMDA receptor; Grin1/Grin2a (Rattus norvegicus, UniProt P35439+Q00959). In words: Activity at rat NR1/NR2A receptor expressed in Xenopus oocytes assessed as inhibition of glycine-induced electrophysiological response. It counts as cell-based, Oocyte.
The target in test [2] is Glutamate NMDA receptor (Rattus norvegicus) (UniProt P35439+Q00959+Q00960+Q00961+Q62645+Q8VHN2+Q9R1M7). In words: Displacement of [3H]MDL105519 from rat brain NMDA receptor glycine binding site at 100 uM by Packard Topcount scintillation counter. Background: In a radioligand displacement assay an active substance lowers the binding of a labelled ligand.

Calls of active or inactive are those of the source. No cut-off for these calls is given here.

Sequence of Glutamate NMDA receptor; Grin1/Grin2a (Q00959 whole entry, other chains not shown): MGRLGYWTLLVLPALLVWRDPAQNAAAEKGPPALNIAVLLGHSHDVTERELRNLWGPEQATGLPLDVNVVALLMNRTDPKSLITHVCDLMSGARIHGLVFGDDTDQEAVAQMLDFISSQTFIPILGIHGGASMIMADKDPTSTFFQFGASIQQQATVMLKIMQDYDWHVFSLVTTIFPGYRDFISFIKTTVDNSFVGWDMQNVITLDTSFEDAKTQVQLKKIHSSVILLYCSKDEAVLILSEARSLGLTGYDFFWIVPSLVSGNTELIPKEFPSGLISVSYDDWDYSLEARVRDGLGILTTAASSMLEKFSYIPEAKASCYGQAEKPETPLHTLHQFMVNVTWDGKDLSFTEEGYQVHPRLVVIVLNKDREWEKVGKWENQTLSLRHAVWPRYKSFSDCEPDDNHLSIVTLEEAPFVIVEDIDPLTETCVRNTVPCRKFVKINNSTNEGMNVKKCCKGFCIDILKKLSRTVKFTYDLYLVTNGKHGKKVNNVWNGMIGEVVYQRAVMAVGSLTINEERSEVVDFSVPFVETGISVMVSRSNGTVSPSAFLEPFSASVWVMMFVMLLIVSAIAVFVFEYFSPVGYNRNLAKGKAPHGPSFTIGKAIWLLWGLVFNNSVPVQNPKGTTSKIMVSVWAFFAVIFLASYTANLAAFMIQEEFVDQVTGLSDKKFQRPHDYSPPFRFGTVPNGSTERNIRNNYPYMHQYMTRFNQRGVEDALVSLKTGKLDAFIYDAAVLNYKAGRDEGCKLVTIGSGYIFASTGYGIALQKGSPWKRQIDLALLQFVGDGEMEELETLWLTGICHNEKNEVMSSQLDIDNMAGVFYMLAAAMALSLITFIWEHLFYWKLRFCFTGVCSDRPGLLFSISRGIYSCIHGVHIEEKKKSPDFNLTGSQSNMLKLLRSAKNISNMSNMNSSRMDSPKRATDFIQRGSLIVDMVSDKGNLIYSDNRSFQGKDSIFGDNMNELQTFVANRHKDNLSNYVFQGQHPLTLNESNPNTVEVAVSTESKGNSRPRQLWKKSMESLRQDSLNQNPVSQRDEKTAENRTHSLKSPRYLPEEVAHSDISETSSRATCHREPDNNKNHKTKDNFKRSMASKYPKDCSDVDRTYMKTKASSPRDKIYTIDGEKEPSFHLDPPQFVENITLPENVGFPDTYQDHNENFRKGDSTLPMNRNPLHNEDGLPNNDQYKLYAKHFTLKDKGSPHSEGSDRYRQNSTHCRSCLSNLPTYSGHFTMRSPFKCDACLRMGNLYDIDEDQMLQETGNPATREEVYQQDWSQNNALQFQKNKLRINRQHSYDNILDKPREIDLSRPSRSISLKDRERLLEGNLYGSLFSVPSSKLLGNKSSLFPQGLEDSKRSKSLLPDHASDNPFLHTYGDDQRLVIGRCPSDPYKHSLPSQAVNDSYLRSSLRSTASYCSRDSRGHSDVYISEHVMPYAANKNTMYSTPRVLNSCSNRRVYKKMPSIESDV

For `C[C@H](N)CC(=O)NCC(=O)O`, the IC50 in test [1] came out at 28 µM.
Take `NCC1CNC(=O)C(=O)N1` (racemic): in test [2], the outcome was inactive.
Compound `NC[C@@H]1NC(=O)CNC1=O` displayed an inhibition in test [2] of 30%. In test [1], the IC50 worked out at 370 µM and the Kd is 50 µM.
For `NCCCC(=O)NCC(=O)O`, the IC50 in test [1] was 65 µM.

By IC50 is commonly meant the concentration that inhibits the measured activity by half. The inhibition is the share of the control response that was lost under treatment. High values mean strong suppression, low ones little suppression. A word on the Kd: it is a measure of binding affinity in units of concentration.
